Assay results published in patent US6300344A, “Heterocyclic compounds” (Fujisawa Pharmaceutical Co., Ltd., priority 1995, dated 2001).
Counter-ions that a name gives are not always drawn.

System: human platelet aggregation induced by ADP
Test: Inhibition of human platelet aggregation induced by ADP
Assay type: cell-based
Conditions: test compound 1.0 × 10^-7 M; human platelet rich plasma; ADP 2.5 μM final; 37° C.; mean ± S.E.
Experimental: Inhibition of human platelet aggregation induced by ADP
The citrate blood was centrifuged at 150 ×g for 10 minutes and the platelet rich plasma (PRP) was removed. The remaining blood was centrifuged for a further 10 minutes at 1500 ×g to prepare the platelet poor plasma (PPP), which was used as a reference for platelet aggregation. […] 25 μl of sample solution and 225 μl of PRP were mixed and stirred at 1000 rpm for 2 minutes at 37° C. Aggregation was induced by ADP solution at the final concentration of 2.5 μM.

O=C(O)COc1cccc(CC2CCCCC=C2c2nc(-c3ccccc3)c(-c3ccccc3)o2)c1 (centres unmarked) [Test Compound (1), Sodium [3-[[2-(4,5-diphenyloxazol-2-yl)-2-cyclohepten-1-yl]methyl]phenoxy]acetate]
inhibition at 0.1 µM: 88 ± 0.5%

O=C(O)COc1cccc2c1CCC[C@H]2N1CCC[C@@H]1c1nc(-c2ccccc2)c(-c2ccccc2)o1 [Test Compound (2), Sodium salt of (1R)-1-((2R)-2-(4,5-diphenyloxazol-2-yl)pyrrolidin-1-yl]-5-carboxymethoxy-1,2,3,4-tetrahydronaphthalene]
inhibition at 0.1 µM: 85 ± 7.6%
